From paper PMC11693670 (Frontiers in Fungal Biology, 2024)
Ends that are not written are not given here.

What was measured:
[1] = test system: C. neoformans; assay: Fungicidal/fungistatic tests; format: cell-based, Cryptococcus neoformans; set-up: key: Presence (+); absence (–); settings: 5 µL plated on YPD agar, 30°C, visual inspection, six replicates
Experimental: Fungicidal/fungistatic tests were conducted with the four especially effective syn-enterocin peptides. C. neoformans was grown at 30°C in YPD overnight to an OD between 0.5 and 1.2 at 600 nm, then the C. neoformans culture was diluted to 10^5 and 10^3 fungal cells per well on a 96-well plate. Each well was treated with peptide at 16 µM before 5 µL per well was transferred onto YPD agar plates. Dilutions to reach desired cell counts were done in YPD. Six replicates of each peptide/dilution combination were plated. Plates were incubated at 30°C for 72 hours. Fungal growth was determined by visual inspection, with presence or absence of fungal growth being recorded (individual colonies were absent or overgrown and thus uncountable).

[2] = test system: C. neoformans (KN99α); settings: 96 h
Experimental: C. neoformans and C. auris plates were incubated at 37°C and 5% CO2 for 96 hours after introduction of peptide and read at OD 600nm every 24 hours. […] MICs were determined for suspected positive hits against C. neoformans and C. albicans grown under the conditions previously described with approximately 500 fungal cells per well. […] C. neoformans plates were incubated at 37°C and 5% CO2 for 96 hours after introduction of peptide and read at OD 600nm every 24 hours. […] MICs were determined by approximately 50% inhibition of fungal growth, meaning that fungal growth as measured by OD was reduced 50% by peptide treatment relative to vehicle control.
Percent inhibition was calculated as the reduction
in OD at 600nm following peptide treatment relative to vehicle control. The average of six
replicates was used for each peptide concentration treatment and vehicle control.

Compound	Presence or absence of fungal growth at 72 hrs ([1]; cell count 10^3, treatment 16 μM)	Presence or absence of fungal growth at 72 hrs ([1]; cell count 10^5, treatment 16 μM)	MIC against C. neoformans [2] [µM]
OC(Cn1cncn1)(Cn1cncn1)c1ccc(F)cc1F [Fluconazole]	–	–	
AGWERIAKELKKYIKKGKKVIRAAW [Peptide 32]			2
